Laboratory results published in patent US20160296499A1, “Spiroindoline Antiparasitic Derivatives” (ZOETIS SERVICES LLC, priority 2013, published 2016).
Read-outs that look alike come from different tables or passages of the source.

Assays:
Haemonchus contortus L3 = experiment: Haemonchus contortus, Larvae Stage 3 (HcL3) In Vitro Assay; details: Haemonchus contortus
[1] = biological target: T1, bovine vesicular acetylcholine transporter (VAChT) (Bos taurus, UniProt E1BK36); experiment: Radioligand Binding Assay; details: Bovine binding Ki, CHO-K1 membranes with recombinant bovine VAChT, [3H]Compound X6 0.3 nM
T1 sequence (E1BK36 1-524): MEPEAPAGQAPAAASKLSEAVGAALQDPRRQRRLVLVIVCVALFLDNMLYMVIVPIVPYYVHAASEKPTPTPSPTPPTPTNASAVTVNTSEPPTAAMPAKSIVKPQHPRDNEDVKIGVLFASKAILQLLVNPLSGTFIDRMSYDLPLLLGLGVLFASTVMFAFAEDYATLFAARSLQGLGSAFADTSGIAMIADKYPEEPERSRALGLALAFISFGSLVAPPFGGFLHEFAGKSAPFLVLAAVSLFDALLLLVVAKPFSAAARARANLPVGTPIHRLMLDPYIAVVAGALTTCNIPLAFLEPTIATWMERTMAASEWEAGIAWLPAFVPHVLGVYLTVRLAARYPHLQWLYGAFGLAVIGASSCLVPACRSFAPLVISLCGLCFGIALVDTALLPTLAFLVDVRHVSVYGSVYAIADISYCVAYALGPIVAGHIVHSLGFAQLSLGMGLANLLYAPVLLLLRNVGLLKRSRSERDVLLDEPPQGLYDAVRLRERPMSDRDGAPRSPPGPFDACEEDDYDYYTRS

[2] = system: Dirofilaria immitis microfilariae; experiment: Dirofilaria immitis, Microfilariae (DiMF) In Vitro Assay; details: Dirofilaria immitis
[3] = 96 h, read-out: HcL3 MEC, Minimal Effective Concentration whereby worm motility is inhibited by approximately 70%, 37° C., tested 0.001-100 μM
[4] = 72 h, read-out: Di MF, MEC, decrease in microfilariae motility by visual assessment, curve starting at 100 μM
[5] = 96 hours, 37° C., read-out: HcL3 MEC

Row | Structure (SMILES) | minimal effective concentration (Haemonchus contortus L3; [3]) | Ki [1] | minimal effective concentration [2, 4] | minimal effective concentration (Haemonchus contortus L3; [5]) | minimal effective concentration ([2]; 72 hours, read-out: Di MF)
1 | COc1ccc(/C=C/CN2CCC3(CC2)CN(C(=O)NCc2ccnc(Cl)c2)c2ccc4scnc4c23)cc1 [Example 42, (E)-N-((2-chloropyridin-4-yl)methyl)-1-(3-(4-methoxyphenyl)allyl)spiro[piperidine-4,8′-thiazolo[4,5-e]indole]-6′(7′H)-carboxamide] | > 100 µM | 55 nM | 10 µM |  | 
2 | Cc1nc2c3c(ccc2s1)N(C(=O)NCc1ccnc(Cl)c1)CC31CCN(C/C=C/c2ccc(Cl)cc2)CC1 [Example 43, (E)-1-(3-(4-chlorophenyl)allyl)-N-((2-chloropyridin-4-yl)methyl)-2′-methylspiro[piperidine-4,8′-thiazolo[4,5-e]indole]-6′(7′H)-carboxamide] | > 100 µM | 264 nM | 10 µM |  | 
3 | Cc1nc2c3c(ccc2s1)N(C(=O)NCc1ccnc(Cl)c1)CC31CCN(C/C=C/c2ccc(F)cc2)CC1 [Example 44, (E)-N-((2-chloropyridin-4-yl)methyl)-1-(3-(4-fluorophenyl)allyl)-2′-methylspiro[piperidine-4,8′-thiazolo[4,5-e]indole]-6′(7′H)-carboxamide] |  | 507 nM |  | > 100 µM | 10 µM
4 | Cc1nc2c3c(ccc2s1)N(C(=O)NCc1ccnc(Cl)c1)CC31CCN(C/C=C/c2ccc(C(F)(F)F)cn2)CC1 [Example 45, (E)-N-((2-chloropyridin-4-yl)methyl)-2′-methyl-1-(3-(5-(trifluoromethyl)pyridin-2-yl)allyl)spiro[piperidine-4,8′-thiazolo[4,5-e]indole]-6′(7′H)-carboxamide] | > 100 µM | 3220 nM | 33 µM |  | 
5 | COc1ccc(/C=C/CN2CCC3(CC2)CN(C(=O)NCc2ccnc(Cl)c2)c2ccc4sc(C)nc4c23)cc1 [Example 46, (E)-N-((2-chloropyridin-4-yl)methyl)-1-(3-(4-methoxyphenyl)allyl)-2′-methylspiro[piperidine-4,8′-thiazolo[4,5-e]indole]-6′(7′H)-carboxamide] | > 100 µM | 883 nM | 10 µM |  | 
6 | O=C(NCc1ccnc(Br)c1)N1CC2(CCN(C/C=C/c3ccc(Cl)c(Cl)c3)CC2)c2c1ccc1scnc21 [Example 47, (E)-N-((2-bromopyridin-4-yl)methyl)-1-(3-(3,4-dichlorophenyl)allyl)spiro[piperidine-4,8′-thiazolo[4,5-e]indole]-6′(7′H)-carboxamide] | 100 µM | 919 nM | 10 µM |  | 
7 | Cn1ncc2c3c(ccc21)N(C(=O)NCc1ccnc(Cl)c1)CC31CCN(C/C=C/c2ccc(Cl)cc2)CC1 [Example 51, (E)-1-(3-(4-chlorophenyl)allyl)-N-((2-chloropyridin-4-yl)methyl)-3′-methyl-3′H-spiro[piperidine-4,8′-pyrrolo[3,2-e]indazole]-6′(7′H)-carboxamide] |  | 518 nM |  | > 100 µM | 33.3 µM
8 | Cn1ncc2c3c(ccc21)N(C(=O)NCc1ccnc(Cl)c1)CC31CCN(C/C=C/c2ccc(F)cc2)CC1 [Example 52, (E)-N-((2-chloropyridin-4-yl)methyl)-1-(3-(4-fluorophenyl)allyl)-3′-methyl-3′H-spiro[piperidine-4,8′-pyrrolo[3,2-e]indazole]-6′(7′H)-carboxamide] | > 100 µM | 778 nM | 10 µM |  | 
9 | Cn1ncc2c3c(ccc21)N(C(=O)NCc1ccnc(Cl)c1)CC31CCN(C/C=C/c2ccc(C(F)(F)F)cn2)CC1 [Example 53, (E)-N-((2-chloropyridin-4-yl)methyl)-3′-methyl-1-(3-(5-(trifluoromethyl)pyridin-2-yl)allyl)-3′H-spiro[piperidine-4,8′-pyrrolo[3,2-e]indazole]-6′(7′H)-carboxamide] | > 100 µM | 1930 nM | 33 µM |  | 
10 | COc1ccc(/C=C/CN2CCC3(CC2)CN(C(=O)NCc2ccnc(Cl)c2)c2ccc4c(cnn4C)c23)cc1 [Example 54, (E)-N-((2-chloropyridin-4-yl)methyl)-1-(3-(4-methoxyphenyl)allyl)-3′-methyl-3′H-spiro[piperidine-4,8′-pyrrolo[3,2-e]indazole]-6′(7′H)-carboxamide] | > 100 µM | 1400 nM | 33 µM |  | 
11 | O=C(NCc1ccnc(Cl)c1)N1CC2(CCN(C/C=C/c3ccc(Cl)c(Cl)c3)CC2)c2cc(OC(F)(F)F)ccc21 [Example 55, (E)-N-((2-chloropyridin-4-yl)methyl)-1′-(3-(3,4-dichlorophenyl)allyl)-5-(trifluoromethoxy)spiro[indoline-3,4′-piperidine]-1-carboxamide] | 3.3 µM | 876 nM | 5.7 µM |  | 
12 | O=C(NCc1ccnc(Cl)c1)N1CC2(CCN(C/C=C/c3ccc(Cl)c(Cl)c3)CC2)c2c1cccc2C(F)(F)F [Example 56, (E)-N-((2-chloropyridin-4-yl)methyl)-1′-(3-(3,4-dichlorophenyl)allyl)-4-(trifluoromethyl)spiro[indoline-3,4′-piperidine]-1-carboxamide] |  | 432 nM |  | 4.5 µM | 9.1 µM
13 | O=C(NCc1cnc(Cl)s1)N1CC2(CCN(C/C=C/c3ccc(Cl)cc3)CC2)c2c(OC(F)(F)F)ccc(Cl)c21 [Example 57, (E)-7-chloro-1′-(3-(4-chlorophenyl)allyl)-N-((2-chlorothiazol-5-yl)methyl)-4-(trifluoromethoxy)spiro[indoline-3,4′-piperidine]-1-carboxamide] | 70 µM | 954 nM | 4 µM |  | 
14 | O=C(NCc1ccnc(Cl)c1)N1CC2(CCN(C/C=C/c3ccc(F)cc3)CC2)c2c(OC(F)(F)F)ccc(Cl)c21 [Example 58, (E)-7-chloro-N-((2-chloropyridin-4-yl)methyl)-1′-(3-(4-fluorophenyl)allyl)-4-(trifluoromethoxy)spiro[indoline-3,4′-piperidine]-1-carboxamide] | 100 µM | 1360 nM | 10 µM |  | 
15 | O=C(NCc1ccnc(Cl)c1)N1CC2(CCN(C/C=C/c3ccc(Cl)cc3)CC2)c2c(Cl)cc(Cl)cc21 [Example 59, (E)-4,6-dichloro-1′-(3-(4-chlorophenyl)allyl)-N-((2-chloropyridin-4-yl)methyl)spiro[indoline-3,4′-piperidine]-1-carboxamide] |  | 284 nM |  | 100 µM | 10 µM
16 | O=C(NCc1ccnc(F)c1)N1CC2(CCN(C/C=C/c3ccc(Cl)cc3)CC2)c2c(Cl)cc(Cl)cc21 [Example 60, (E)-4,6-dichloro-1′-(3-(4-chlorophenyl)allyl)-N-((2-fluoropyridin-4-yl)methyl)spiro[indoline-3,4′-piperidine]-1-carboxamide] | 100 µM | 986 nM | 10 µM |  | 
17 | O=C(NCc1ccnc(F)c1)N1CC2(CCN(C/C=C/c3ccc(Cl)cc3)CC2)c2c1cc(Cl)c(F)c2Cl [Example 61, (E)-4,6-dichloro-1′-(3-(4-chlorophenyl)allyl)-5-fluoro-N-((2-fluoropyridin-4-yl)methyl)spiro[indoline-3,4′-piperidine]-1-carboxamide] | 100 µM | 671 nM | 10 µM |  | 
18 | O=C(NCc1ccnc(F)c1)N1CC2(CCN(C/C=C/c3ccc(Cl)cc3)CC2)c2c1ccc(Cl)c2Cl [Example 62, (E)-4,5-dichloro-1′-(3-(4-chlorophenyl)allyl)-N-((2-fluoropyridin-4-yl)methyl)spiro[indoline-3,4′-piperidine]-1-carboxamide] | 3.3 µM | 329 nM | 10 µM |  | 
19 | O=C(NCc1ccnc(F)c1)N1CC2(CCN(C/C=C/c3ccc(Cl)cc3)CC2)c2c1ccc(F)c2Cl [Example 63, (E)-4-chloro-1′-(3-(4-chlorophenyl)allyl)-5-fluoro-N-((2-fluoropyridin-4-yl)methyl)spiro[indoline-3,4′-piperidine]-1-carboxamide] | 8.2 µM | 182 nM | 5.7 µM |  | 
20 | O=C(NCc1cnc(Cl)s1)N1CC2(CCN(C/C=C/c3ccc(Cl)cc3)CC2)c2c1ccc(Cl)c2Cl [Example 64, (E)-4,5-dichloro-1′-(3-(4-chlorophenyl)allyl)-N-((2-chlorothiazol-5-yl)methyl)spiro[indoline-3,4′-piperidine]-1-carboxamide] |  | 116 nM |  | 10 µM | 5.7 µM
